Measured values taken from ChEMBL document CHEMBL5465560, “Selectivity Literature for EUbOPEN Chemogenomic Library” (2024).

How the values were obtained:
[1] = molecular target: Myosin light chain kinase, smooth muscle (Homo sapiens, UniProt Q15746); settings: at 10 µM
[2] = molecular target: Leukocyte tyrosine kinase receptor (Homo sapiens, UniProt P29376); experiment: Selectivity interaction (KinomeScan (DiscoverX)) EUB0000092b LTK; settings: at 10 µM
[3] = molecular target: Serine/threonine-protein kinase pim-1 (Homo sapiens, UniProt P11309); experiment: Selectivity interaction (KinomeScan (DiscoverX)) EUB0000655a PIM1; settings: at 10 µM
[4] = molecular target: T1, Dual serine/threonine and tyrosine protein kinase (Homo sapiens) (UniProt Q6XUX3); experiment: Selectivity interaction (KinomeScan (DiscoverX)) EUB0001079a DSTYK; settings: at 1 µM
T1 sequence (whole entry): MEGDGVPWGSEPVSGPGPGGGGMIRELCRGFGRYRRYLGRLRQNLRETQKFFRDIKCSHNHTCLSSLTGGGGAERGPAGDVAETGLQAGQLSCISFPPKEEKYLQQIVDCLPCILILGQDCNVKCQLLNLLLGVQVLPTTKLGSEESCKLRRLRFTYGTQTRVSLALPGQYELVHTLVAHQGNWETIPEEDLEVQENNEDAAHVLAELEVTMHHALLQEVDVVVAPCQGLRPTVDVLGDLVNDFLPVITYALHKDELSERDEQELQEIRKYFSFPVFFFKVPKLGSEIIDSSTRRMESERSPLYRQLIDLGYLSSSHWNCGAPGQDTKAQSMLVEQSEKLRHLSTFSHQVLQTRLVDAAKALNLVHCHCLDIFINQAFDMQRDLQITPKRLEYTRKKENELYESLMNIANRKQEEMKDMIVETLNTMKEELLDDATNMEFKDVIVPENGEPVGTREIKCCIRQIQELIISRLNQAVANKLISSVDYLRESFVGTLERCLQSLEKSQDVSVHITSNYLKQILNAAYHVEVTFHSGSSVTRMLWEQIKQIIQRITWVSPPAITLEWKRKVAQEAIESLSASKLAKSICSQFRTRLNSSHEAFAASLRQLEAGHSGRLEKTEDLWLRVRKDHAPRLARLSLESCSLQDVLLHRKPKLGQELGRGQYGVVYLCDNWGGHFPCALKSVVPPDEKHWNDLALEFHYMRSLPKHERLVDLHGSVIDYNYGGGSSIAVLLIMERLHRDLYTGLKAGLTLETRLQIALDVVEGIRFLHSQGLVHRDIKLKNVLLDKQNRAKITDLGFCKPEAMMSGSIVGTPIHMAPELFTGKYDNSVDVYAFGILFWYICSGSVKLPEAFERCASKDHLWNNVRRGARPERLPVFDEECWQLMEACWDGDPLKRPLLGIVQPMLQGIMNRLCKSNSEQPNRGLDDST

[5] = molecular target: Casein kinase I isoform epsilon (Homo sapiens, UniProt P49674); experiment: Selectivity interaction (KinomeScan (DiscoverX)) EUB0001079a CSNK1E; settings: at 1 µM
[6] = molecular target: T2, MAP/microtubule affinity-regulating kinase 4 (Homo sapiens) (UniProt Q96L34); experiment: Selectivity interaction (KinomeScan (DiscoverX)) EUB0000666a MARK4; settings: at 10 µM
T2 sequence (whole entry): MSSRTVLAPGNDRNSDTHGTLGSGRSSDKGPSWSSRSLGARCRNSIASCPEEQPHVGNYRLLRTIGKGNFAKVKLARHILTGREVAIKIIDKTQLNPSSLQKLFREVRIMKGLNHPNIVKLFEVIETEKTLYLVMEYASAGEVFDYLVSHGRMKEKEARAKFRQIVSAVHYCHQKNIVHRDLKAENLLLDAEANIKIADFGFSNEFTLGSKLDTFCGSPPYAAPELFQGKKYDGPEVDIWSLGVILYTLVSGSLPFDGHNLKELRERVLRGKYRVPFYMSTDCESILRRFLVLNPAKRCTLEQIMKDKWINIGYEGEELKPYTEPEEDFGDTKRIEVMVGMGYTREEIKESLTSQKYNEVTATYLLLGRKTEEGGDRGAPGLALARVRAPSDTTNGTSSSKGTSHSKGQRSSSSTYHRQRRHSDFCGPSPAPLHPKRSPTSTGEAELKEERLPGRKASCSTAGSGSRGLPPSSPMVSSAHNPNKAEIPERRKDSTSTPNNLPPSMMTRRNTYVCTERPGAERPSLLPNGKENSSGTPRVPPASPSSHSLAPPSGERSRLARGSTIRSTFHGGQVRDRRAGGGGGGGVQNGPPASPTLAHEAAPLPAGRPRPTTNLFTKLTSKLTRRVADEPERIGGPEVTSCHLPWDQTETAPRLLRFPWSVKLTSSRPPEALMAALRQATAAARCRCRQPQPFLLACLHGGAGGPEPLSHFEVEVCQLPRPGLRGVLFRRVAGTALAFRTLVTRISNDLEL

[7] = molecular target: Serine/threonine-protein kinase 32C (Homo sapiens) (UniProt Q86UX6); experiment: Selectivity interaction (LanthaScreen Eu Kinase Binding Assay) EUB0001632a STK32C; settings: at 10 µM
[8] = molecular target: Hepatocyte growth factor receptor (Homo sapiens, UniProt P08581); experiment: (§1) Selectivity interaction (Kinase panel (Z-LYTE Assay)) EUB0001632a MET; settings: at 10 µM
[9] = tested on: Hepatocyte growth factor receptor (Homo sapiens), P08581 [M1250T]; experiment: as §1; settings: at 10 µM
[10] = molecular target: Bromodomain and WD repeat-containing protein 1 (Homo sapiens) (UniProt Q9NSI6); experiment: Selectivity interaction (Bromodomain panel (DSF asssay)) EUB0000270b BRWD1
[11] = molecular target: Rho-associated protein kinase 2 (Homo sapiens, UniProt O75116); experiment: Selectivity interaction (Kinase panel (Invitrogen)) EUB0000639a ROCK2; settings: at 200 nM
[12] = molecular target: LIM domain kinase 2 (Homo sapiens) (UniProt P53671); settings: at 10 µM
[13] = molecular target: Receptor tyrosine-protein kinase erbB-4 (Homo sapiens, UniProt Q15303); experiment: Selectivity interaction (KinomeScan (DiscoverX)) EUB0000045b ERBB4
[14] = molecular target: T3, Dual specificity mitogen-activated protein kinase kinase 5 (Homo sapiens) (UniProt Q13163); experiment: Selectivity interaction (Kinase panel (Carna Biosciences)) EUB0001542aTs MAP2K5; settings: at 1 µM
T3 sequence (whole entry): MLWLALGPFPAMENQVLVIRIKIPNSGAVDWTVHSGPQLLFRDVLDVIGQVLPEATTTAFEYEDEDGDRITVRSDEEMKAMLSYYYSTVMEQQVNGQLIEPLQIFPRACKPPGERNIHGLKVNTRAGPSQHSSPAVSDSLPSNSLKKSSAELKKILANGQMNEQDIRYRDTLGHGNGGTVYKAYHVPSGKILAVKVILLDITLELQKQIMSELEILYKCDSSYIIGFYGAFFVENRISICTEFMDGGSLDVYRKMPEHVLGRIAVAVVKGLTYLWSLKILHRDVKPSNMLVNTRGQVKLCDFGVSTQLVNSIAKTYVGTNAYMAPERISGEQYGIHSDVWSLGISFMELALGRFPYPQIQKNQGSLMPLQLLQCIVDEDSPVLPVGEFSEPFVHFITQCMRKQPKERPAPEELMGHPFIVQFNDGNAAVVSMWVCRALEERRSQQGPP

Sequence of Receptor tyrosine-protein kinase erbB-4 (Q15303 whole entry): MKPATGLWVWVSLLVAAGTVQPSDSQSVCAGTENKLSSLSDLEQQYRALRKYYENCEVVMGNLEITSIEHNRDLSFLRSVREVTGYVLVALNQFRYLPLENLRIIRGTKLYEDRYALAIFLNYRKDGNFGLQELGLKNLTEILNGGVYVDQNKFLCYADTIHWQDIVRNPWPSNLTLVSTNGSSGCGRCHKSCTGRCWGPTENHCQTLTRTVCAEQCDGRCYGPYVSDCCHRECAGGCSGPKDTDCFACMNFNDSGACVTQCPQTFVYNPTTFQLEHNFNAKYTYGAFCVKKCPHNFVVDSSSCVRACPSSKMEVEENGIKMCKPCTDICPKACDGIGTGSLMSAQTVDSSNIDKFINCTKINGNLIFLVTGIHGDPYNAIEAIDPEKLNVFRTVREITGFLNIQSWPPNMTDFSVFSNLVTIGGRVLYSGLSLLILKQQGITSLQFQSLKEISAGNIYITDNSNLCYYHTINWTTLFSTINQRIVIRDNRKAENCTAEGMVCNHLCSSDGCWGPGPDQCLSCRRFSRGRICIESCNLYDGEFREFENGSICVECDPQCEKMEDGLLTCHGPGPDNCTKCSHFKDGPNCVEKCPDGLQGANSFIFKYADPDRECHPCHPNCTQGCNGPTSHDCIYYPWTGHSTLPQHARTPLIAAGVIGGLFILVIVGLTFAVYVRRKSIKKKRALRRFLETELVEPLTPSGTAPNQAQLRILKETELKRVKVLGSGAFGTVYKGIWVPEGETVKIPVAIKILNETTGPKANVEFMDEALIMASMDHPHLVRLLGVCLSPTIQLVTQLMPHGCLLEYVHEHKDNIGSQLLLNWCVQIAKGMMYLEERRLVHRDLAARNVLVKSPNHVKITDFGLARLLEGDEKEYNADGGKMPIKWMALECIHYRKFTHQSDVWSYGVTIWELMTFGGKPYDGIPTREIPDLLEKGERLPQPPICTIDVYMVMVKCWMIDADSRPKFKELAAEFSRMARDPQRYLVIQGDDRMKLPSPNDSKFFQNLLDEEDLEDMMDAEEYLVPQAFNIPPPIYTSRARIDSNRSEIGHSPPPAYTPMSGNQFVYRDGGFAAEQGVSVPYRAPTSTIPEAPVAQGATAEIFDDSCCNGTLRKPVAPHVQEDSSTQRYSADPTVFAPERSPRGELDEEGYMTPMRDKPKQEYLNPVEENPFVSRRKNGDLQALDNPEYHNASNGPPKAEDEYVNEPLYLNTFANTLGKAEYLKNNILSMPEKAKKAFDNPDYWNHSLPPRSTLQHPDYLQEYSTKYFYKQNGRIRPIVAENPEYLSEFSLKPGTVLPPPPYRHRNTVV
Sequence of Hepatocyte growth factor receptor (P08581 whole entry): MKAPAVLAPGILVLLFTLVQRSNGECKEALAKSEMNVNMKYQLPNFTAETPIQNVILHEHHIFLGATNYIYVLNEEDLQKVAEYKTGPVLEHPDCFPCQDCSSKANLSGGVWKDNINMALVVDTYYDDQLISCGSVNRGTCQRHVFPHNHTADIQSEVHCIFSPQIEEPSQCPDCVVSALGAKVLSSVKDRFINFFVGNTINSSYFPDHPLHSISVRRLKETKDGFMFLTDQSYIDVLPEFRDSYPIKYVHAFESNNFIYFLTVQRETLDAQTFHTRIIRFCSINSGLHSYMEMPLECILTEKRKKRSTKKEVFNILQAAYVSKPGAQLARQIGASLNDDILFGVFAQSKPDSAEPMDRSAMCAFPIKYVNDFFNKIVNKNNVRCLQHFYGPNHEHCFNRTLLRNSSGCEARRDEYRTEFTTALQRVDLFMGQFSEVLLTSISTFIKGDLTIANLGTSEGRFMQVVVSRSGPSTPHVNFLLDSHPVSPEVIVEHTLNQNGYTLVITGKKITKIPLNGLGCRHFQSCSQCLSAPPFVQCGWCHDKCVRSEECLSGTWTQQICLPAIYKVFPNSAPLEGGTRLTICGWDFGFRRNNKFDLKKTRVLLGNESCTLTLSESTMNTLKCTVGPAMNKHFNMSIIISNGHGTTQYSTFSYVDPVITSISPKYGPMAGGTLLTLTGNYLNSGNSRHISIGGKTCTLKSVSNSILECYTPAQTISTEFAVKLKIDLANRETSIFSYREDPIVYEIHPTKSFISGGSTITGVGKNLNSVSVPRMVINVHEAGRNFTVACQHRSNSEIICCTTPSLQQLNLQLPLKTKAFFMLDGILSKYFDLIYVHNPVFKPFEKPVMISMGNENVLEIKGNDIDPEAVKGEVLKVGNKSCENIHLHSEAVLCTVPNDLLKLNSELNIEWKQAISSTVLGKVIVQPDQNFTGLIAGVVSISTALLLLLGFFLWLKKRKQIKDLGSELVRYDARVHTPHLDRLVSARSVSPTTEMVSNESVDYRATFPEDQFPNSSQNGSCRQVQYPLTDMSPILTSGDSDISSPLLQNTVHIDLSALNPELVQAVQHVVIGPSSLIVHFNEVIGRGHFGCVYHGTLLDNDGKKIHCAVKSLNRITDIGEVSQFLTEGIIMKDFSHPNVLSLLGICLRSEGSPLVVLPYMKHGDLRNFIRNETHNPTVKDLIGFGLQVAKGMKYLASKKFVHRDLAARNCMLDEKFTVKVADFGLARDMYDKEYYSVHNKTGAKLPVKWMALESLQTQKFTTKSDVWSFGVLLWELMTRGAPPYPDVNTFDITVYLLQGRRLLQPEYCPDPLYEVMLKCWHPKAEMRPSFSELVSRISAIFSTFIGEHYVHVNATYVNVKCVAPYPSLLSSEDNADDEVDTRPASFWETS
Sequence of Hepatocyte growth factor receptor (Homo sapiens), P08581 [M1250T] (P08581 whole entry M1250T): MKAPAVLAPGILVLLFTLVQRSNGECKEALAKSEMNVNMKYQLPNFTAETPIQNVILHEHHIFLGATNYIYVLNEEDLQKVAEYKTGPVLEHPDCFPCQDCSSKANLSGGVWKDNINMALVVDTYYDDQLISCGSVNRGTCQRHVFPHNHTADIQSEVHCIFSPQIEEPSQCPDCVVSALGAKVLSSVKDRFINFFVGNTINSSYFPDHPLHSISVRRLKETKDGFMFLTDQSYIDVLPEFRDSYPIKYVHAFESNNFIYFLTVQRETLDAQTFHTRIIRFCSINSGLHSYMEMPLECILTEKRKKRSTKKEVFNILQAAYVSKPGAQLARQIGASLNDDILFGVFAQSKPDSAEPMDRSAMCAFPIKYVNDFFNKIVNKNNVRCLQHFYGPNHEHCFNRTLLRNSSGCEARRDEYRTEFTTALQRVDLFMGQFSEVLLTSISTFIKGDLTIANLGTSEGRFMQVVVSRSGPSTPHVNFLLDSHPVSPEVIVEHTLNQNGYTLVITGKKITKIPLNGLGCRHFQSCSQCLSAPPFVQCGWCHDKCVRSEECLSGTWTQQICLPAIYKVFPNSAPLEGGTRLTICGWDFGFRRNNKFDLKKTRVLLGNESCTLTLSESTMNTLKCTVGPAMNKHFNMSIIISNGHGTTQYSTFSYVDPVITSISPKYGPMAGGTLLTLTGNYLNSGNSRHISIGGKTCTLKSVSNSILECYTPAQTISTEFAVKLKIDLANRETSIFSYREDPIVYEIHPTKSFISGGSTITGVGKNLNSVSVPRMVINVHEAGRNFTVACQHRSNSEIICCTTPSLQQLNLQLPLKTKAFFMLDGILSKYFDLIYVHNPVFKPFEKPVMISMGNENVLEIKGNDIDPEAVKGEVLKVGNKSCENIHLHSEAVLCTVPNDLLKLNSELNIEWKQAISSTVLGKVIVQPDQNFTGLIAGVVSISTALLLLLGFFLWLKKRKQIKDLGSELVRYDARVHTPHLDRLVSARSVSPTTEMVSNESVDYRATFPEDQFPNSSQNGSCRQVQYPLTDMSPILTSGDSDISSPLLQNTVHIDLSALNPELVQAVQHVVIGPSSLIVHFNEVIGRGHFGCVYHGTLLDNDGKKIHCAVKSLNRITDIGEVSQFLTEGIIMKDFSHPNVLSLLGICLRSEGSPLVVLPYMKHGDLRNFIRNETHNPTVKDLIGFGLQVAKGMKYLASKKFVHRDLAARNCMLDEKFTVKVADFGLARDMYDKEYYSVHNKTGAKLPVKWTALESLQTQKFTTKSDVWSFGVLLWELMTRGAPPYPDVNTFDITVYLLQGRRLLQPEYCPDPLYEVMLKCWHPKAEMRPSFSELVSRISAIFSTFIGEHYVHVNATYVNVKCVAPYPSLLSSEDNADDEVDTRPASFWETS
Sequence of Leukocyte tyrosine kinase receptor (P29376 whole entry): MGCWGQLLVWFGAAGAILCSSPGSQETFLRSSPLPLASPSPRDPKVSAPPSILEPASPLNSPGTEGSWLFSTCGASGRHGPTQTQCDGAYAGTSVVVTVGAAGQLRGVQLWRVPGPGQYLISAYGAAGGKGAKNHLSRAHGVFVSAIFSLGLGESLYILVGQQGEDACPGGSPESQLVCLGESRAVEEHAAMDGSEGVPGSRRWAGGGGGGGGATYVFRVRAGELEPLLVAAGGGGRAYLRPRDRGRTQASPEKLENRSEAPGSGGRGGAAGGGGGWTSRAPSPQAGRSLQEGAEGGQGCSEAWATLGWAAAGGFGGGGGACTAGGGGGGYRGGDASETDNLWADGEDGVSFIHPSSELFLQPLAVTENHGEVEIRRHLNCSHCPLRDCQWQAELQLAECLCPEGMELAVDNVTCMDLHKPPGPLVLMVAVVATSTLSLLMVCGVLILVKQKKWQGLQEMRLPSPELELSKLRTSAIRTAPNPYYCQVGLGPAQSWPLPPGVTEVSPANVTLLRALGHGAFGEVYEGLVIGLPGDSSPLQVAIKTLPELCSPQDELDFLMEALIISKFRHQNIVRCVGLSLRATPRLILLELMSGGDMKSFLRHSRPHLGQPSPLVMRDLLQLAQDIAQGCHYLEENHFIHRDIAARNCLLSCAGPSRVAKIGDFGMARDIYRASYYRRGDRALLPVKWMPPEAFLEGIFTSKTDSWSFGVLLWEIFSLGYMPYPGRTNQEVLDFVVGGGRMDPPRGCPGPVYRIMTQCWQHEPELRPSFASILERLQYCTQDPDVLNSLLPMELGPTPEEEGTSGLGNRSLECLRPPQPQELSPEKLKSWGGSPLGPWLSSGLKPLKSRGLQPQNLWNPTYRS

SMILES: CCN(CC)CCCCNc1ncc2cc(-c3cc(OC)cc(OC)c3)c(NC(=O)NC(C)(C)C)nc2n1
- % of control [1]: 100%

SMILES: CCC(=O)N1CCN(c2ccc(-n3c(=O)ccc4cnc5ccc(-c6cnc7ccccc7c6)cc5c43)cc2C(F)(F)F)CC1
- % of control [2]: 77%

SMILES: CN(C)CCOc1ccc(-c2nc(-c3ccncc3)c(-c3ccc4c(c3)CC/C4=N\O)[nH]2)cc1
- % of control [3]: 86%

SMILES: Nc1cnc(N2CCc3cc(S(=O)(=O)Nc4c(F)cc(Cl)cc4F)cc(N4CCCC4=O)c32)nc1 [TP-020n]
- % of control [4]: 100%
- % of control [5]: 89%

SMILES: O=C(NOC[C@H](O)CO)c1ccc(F)c(F)c1Nc1ccc(I)cc1F
- % of control [6]: 100%

SMILES: Cn1cc(-n2cnc3c(NCc4nc5cc(Cl)c(Cl)cc5[nH]4)nc(N4CCOCC4)nc32)cn1
- % of inhibition [7]: -34.6%
- % of control [8]: -11.4%
- % of control [9]: 1.3%

SMILES: Cc1cc(CN)cc(C)c1-c1ncn(C)c1-c1cncn1C
- dTM [10]: -1.1 K

SMILES: CC[C@@H]1[C@H](F)C(=O)N[C@@H]1COc1nccc2cc(C(N)=O)c(OC)cc12 [ZIMLOVISERTIB]
- % of inhibition [11]: 18.6%

SMILES: COCC(=O)NC/C=C/c1ccc2ncnc(Nc3ccc(Oc4ccc(C)nc4)c(C)c3)c2c1 [CP-724714]
- % of control [12]: 100%

SMILES: C=CC(=O)Nc1cc(-n2c(=O)ccc3cnc4ccc(-c5ccc(NS(C)(=O)=O)cc5)cc4c32)ccc1C
- % of control ([13]; at 1 µM): 78%
- % of control ([13]; at 10 µM): 18%

SMILES: Cn1cc(Nc2nccc(N3CC4CCC(C3)N4C(=O)[C@@H]3CC3(F)F)n2)cn1
- % of inhibition [14]: 70%
